Reference: PMC6112376, “Comprehensive Analyses and Prioritization of Tox21 10K Chemicals Affecting Mitochondrial Function by in-Depth Mechanistic Studies” (Environmental Health Perspectives, 2018)
Read-outs that look alike come from different tables or passages of the source.

Key:
[1] = system: HepG2 cells; test: cells; conditions: Homo sapiens; for Emax: HepG2, read-out: MMP assays efficacy (%) HepG2
[2] = system: rat primary hepatocytes; test: MMP assay in rat primary hepatocytes; conditions: for MMP assays IC50 (µM) Rat Hepatocytes / MMP assays efficacy (%) Rat Hepatocytes: mean ± SD of three experiments; for IC50: Rattus norvegicus, Hepatocyte
[3] = system: HepG2 cells; conditions: cited from earlier work
[4] = HepG2, read-out: MMP assays IC50 (µM) HepG2
[5] = read-out: MMP assays IC50 (µM) qHTS-HepG2
[6] = read-out: MMP assays IC50 (µM), qHTS-HepG2
[7] = read-out: MMP assays IC50 (µM) Rat Hepatocytes

| SMILES | IC50 [1, 4] | Emax [1] | MMP assays IC50 (µM) Rat Hepatocytes [2] | MMP assays efficacy (%) Rat Hepatocytes [2] | MMP assays efficacy (%) qHTS-HepG2 [3] | IC50 [3, 5] | IC50 [3, 6] | IC50 [2, 7] | IC50 ([1]; HepG2, read-out: IC50 in HepG2 cells (MMP, tier-one retest)) | IC50 ([2]; 1 h, read-out: IC50 in rat primary hepatocytes (MMP, tier-one retest)) |
| --- | --- | --- | --- | --- | --- | --- | --- | --- | --- | --- |
| Nc1ccc2c(O)cc(S(=O)(=O)O)cc2c1 | 39.8 µM | 40% | inactive | inactive | -55±5% | 27.3 ± 3.73 µM |  |  |  |  |
| CCOC1O[C@H]([C@@H](COCc2ccccc2)OCc2ccccc2)[C@H](OCc2ccccc2)[C@H]1O (stereo partly drawn) [Tribenoside] | 11.7 µM | 61% | inactive | inactive | -114±21% |  | 11.8 ± 0.8 µM |  |  |  |
| O=C(Nc1ccc(Cl)cc1)Nc1ccc(Cl)c(C(F)(F)F)c1 [Cloflucarban] | 0.44 µM | 85% |  | -95±5% | -113±9% | 0.6 µM |  | 0.58 ± 0.05 µM |  |  |
| CC(O)(c1ccc(Cl)cc1)c1ccc(Cl)cc1 [Chlorfenethol] | 12.6 µM | 100% |  | -90±2% | -110±19% | 26.3 ± 7.53 µM |  | 18.9 ± 5.35 µM |  |  |
| COc1ccc(/C=C/C(=O)c2ccc(OC)cc2OC)cc1 [Metochalcone] | 39.8 µM | 119% |  | -82±19% | -72±12% |  | 18.2 ± 10.1 µM | 25.5 ± 18.2 µM |  |  |
| CN1C(=O)/C(=N\NC(N)=S)c2ccccc21 [Methisazone] | 12.6 µM | 90% |  | -94±16% | -96±7% |  | 5.82 ± 1.38 µM | 21.5 ± 9.04 µM |  |  |
| CC(C)OC(=O)C(C(=O)OC(C)C)=C1SC=CS1 [Malotilate] | 39.8 µM | 79% |  | -106±108% | -82±14% |  | 15 ± 1.99 µM | 23.9 ± 29.3 µM |  |  |
| CC(C)(C)C1=CC(=O)C=C(C(C)(C)C)C1=O | 39.8 µM | 80% | inactive | inactive | -73±22% | 18.6 ± 12.4 µM |  |  |  |  |
| CCOc1ccc(/N=N/c2ccc(N)cc2N)cc1 [Ethoxazene] | 2.82 µM | 94% |  | -106±32% | -91±7% | 2.7 ± 1.13 µM |  | 4.96 ± 3.42 µM |  |  |
| Nc1ccc(O)c([N+](=O)[O-])c1 [Compound 4-Amino-2-nitrophenol] | 14.1 µM | 97% |  | -90±12% | -86±33% | 15.4 ± 10.6 µM |  | 33.5 ± 2.73 µM |  |  |
| CCCCCCCCCCCCOC(=O)c1cc(O)c(O)c(O)c1 [Dodecyl gallate] | 7.94 µM | 100% |  | -65±17% | -99±8% | 4.75 ± 1.81 µM |  | 48.7 ± 8.3 µM |  |  |
| O=C1c2ccccc2C(=O)c2c(O)ccc(O)c21 [1,4-Dihydroxyanthracene-9,10-dione] | 8.91 µM | 41% |  | -25±3% | -103±19% | 5.24 ± 3.43 µM |  | 4.81 ± 8.07 µM |  |  |
| O=C1OC(=O)c2cccc3cccc1c23 [1H,3H-Naphtho(1,8-cd)pyran-1,3-dione] | 7.94 µM | 63% | inactive | inactive | -51±8% | 3.89 ± 1.12 µM |  |  |  |  |
| CC1=NN(c2ccccc2)C(=O)C1 [Compound 1-Phenyl-3-methyl-5-pyrazolone] | 28.2 µM | 82% |  | -62±9% | -121±16% | 31.8 ± 4.28 µM |  | 25.8 ± 10.1 µM |  |  |
| O=C(Nc1cccc(C(F)(F)F)c1)c1cc(Br)cc(Br)c1O [fluorosalan] |  | 100% |  | -74±9% | -104±5% |  | 0.24 ± 0.09 µM |  | 0.19 µM | 0.42 µM |
| Oc1c2ccccc2c2c3c(cccc13)N=N2 [SP600125] | 1.55 µM | 105% |  | -82±45% | -97±10% |  | 0.92 ± 0.14 µM | 21.1 ± 2.91 µM |  |  |
